Results reported in PubChem BioAssay AID1745844 (Carcinogenic Potency Database (CPDB), 2022).
The source made the active and inactive calls. No rule for the calls is given here.

Test system: rodent lifetime carcinogenesis bioassay, tumor incidence TD50
Test: carcinogenic potency in animals, long-term in vivo studies, CPDB compilation (AID 1745844)
Details: in feed

`Nc1cc(Cl)c(N)c(Cl)c1` gave a TD50 (mouse, strain B6C3F1, females, site: any site (literature study), lesion: several types, types named in the paper, dosed 103 weeks, study length 111 weeks) of 801 mg/kg/day, a TD50 (mouse, strain B6C3F1, females, site: liver, lesion: hepatocellular adenoma + hepatocellular carcinoma + neoplastic nodule, dosed 103 weeks, study length 111 weeks) of 883 mg/kg/day and a TD50 (mouse, strain B6C3F1, females, site: liver, lesion: hepatocellular adenoma + hepatocellular carcinoma, dosed 103 weeks, study length 111 weeks) of 883 mg/kg/day. For the same compound, the TD50 (mouse, strain B6C3F1, females, site: liver, lesion: hepatocellular carcinoma, dosed 103 weeks, study length 111 weeks) was 2030 mg/kg/day, the TD50 (mouse, strain B6C3F1, females, site: lung, lesion: alveolar/bronchiolar adenoma + alveolar/bronchiolar carcinoma, dosed 103 weeks, study length 111 weeks) was 42100 mg/kg/day and the TD50 (mouse, strain B6C3F1, males, site: any site (literature study), lesion: several types, types named in the paper, dosed 103 weeks, study length 111 weeks) was 1730 mg/kg/day. For the same compound, the TD50 (mouse, strain B6C3F1, males, site: liver, lesion: hepatocellular adenoma + hepatocellular carcinoma + neoplastic nodule, dosed 103 weeks, study length 111 weeks) was 737 mg/kg/day, the TD50 (mouse, strain B6C3F1, males, site: liver, lesion: hepatocellular adenoma + hepatocellular carcinoma, dosed 103 weeks, study length 111 weeks) was 737 mg/kg/day and the TD50 (mouse, strain B6C3F1, males, site: liver, lesion: hepatocellular adenoma, dosed 103 weeks, study length 111 weeks) was 933 mg/kg/day. For the same compound, the carcinogen call (rat, strain Fischer 344, females, site: any site (literature study), lesion: several types, types named in the paper, dosed 103 weeks, study length 111 weeks) was “negative (inactive)”, the TD50 (rat, strain Fischer 344, females, site: liver, lesion: hepatocellular adenoma + hepatocellular carcinoma + neoplastic nodule, dosed 103 weeks, study length 111 weeks) was 2960 mg/kg/day and the TD50 (rat, strain Fischer 344, males, site: any site (literature study), lesion: several types, types named in the paper, dosed 103 weeks, study length 111 weeks) was 914 mg/kg/day (inactive). The TD50 (rat, strain Fischer 344, males, site: liver, lesion: hepatocellular adenoma + hepatocellular carcinoma + neoplastic nodule, dosed 103 weeks, study length 111 weeks) was 340 mg/kg/day.

With `Nc1c(N=Nc2ccc([N+](=O)[O-])cc2)c(S(=O)(=O)O)cc2cc(S(=O)(=O)O)c(N=Nc3ccccc3)c(O)c12` the carcinogen call (rat, strain Not specified, females, site: any site (literature study), lesion: several types, types named in the paper, dosed 64 weeks, study length 64 weeks) was “negative (inactive)”, the carcinogen call (rat, strain Not specified, females, site: liver, lesion: one or several types, types not named, dosed 64 weeks, study length 64 weeks) was “negative (inactive)” and the carcinogen call (rat, strain Not specified, males, site: any site (literature study), lesion: several types, types named in the paper, dosed 64 weeks, study length 64 weeks) was “negative (inactive)”. For the same compound, the carcinogen call (rat, strain Not specified, males, site: liver, lesion: one or several types, types not named, dosed 64 weeks, study length 64 weeks) was “negative (inactive)”.

`Cc1ccc(C)c(OCCCC(C)(C)C(=O)O)c1` was tested, and the TD50 (mouse, strain Charles River CD1, females, site: any site (literature study), lesion: several types, types named in the paper, dosed 78 weeks, study length 78 weeks) was 1690 mg/kg/day (inactive), the TD50 (mouse, strain Charles River CD1, females, site: liver, lesion: hepatocellular adenoma, dosed 78 weeks, study length 78 weeks) was 6600 mg/kg/day (inactive) and the TD50 (mouse, strain Charles River CD1, females, site: lung, lesion: several types, types named in the paper, dosed 78 weeks, study length 78 weeks) was 11800 mg/kg/day (inactive). For the same compound, the carcinogen call (mouse, strain Charles River CD1, males, site: any site (literature study), lesion: several types, types named in the paper, dosed 78 weeks, study length 78 weeks) was “negative (inactive)”, the TD50 (mouse, strain Charles River CD1, males, site: liver, lesion: several types, types named in the paper, dosed 78 weeks, study length 78 weeks) was 1660 mg/kg/day (inactive) and the carcinogen call (mouse, strain Charles River CD1, males, site: lung, lesion: several types, types named in the paper, dosed 78 weeks, study length 78 weeks) was “negative (inactive)”. For the same compound, the carcinogen call (rat, strain Charles River CD (Sprague-Dawley), females, site: any site (literature study), lesion: several types, types named in the paper, dosed 104 weeks, study length 104 weeks) was “negative (inactive)”, the TD50 (rat, strain Charles River CD (Sprague-Dawley), females, site: liver, lesion: hepatocellular carcinoma, dosed 104 weeks, study length 104 weeks) was 504 mg/kg/day (inactive) and the TD50 (rat, strain Charles River CD (Sprague-Dawley), males, site: adrenal gland, lesion: pheochromocytoma, dosed 104 weeks, study length 104 weeks) was 85.9 mg/kg/day. For the same compound, the TD50 (rat, strain Charles River CD (Sprague-Dawley), males, site: any site (literature study), lesion: benign tumor, dosed 104 weeks, study length 104 weeks) was 196 mg/kg/day, the TD50 (rat, strain Charles River CD (Sprague-Dawley), males, site: any site (literature study), lesion: several types, types named in the paper, dosed 104 weeks, study length 104 weeks) was 202 mg/kg/day and the TD50 (rat, strain Charles River CD (Sprague-Dawley), males, site: liver, lesion: hepatocellular carcinoma, dosed 104 weeks, study length 104 weeks) was 247 mg/kg/day. For the same compound, the TD50 (rat, strain Charles River CD (Sprague-Dawley), males, site: pancreas, lesion: several types, types named in the paper, dosed 104 weeks, study length 104 weeks) was 161 mg/kg/day and the TD50 (rat, strain Charles River CD (Sprague-Dawley), males, site: testis, lesion: interstitial-cell tumor, dosed 104 weeks, study length 104 weeks) was 516 mg/kg/day.
